Assay results reported in article PMC10178127, “Immunomodulatory Effects of the Pea Defensin Psd1 in the Caco-2/Immune Cells Co-Culture upon Candida albicans Infection” (International Journal of Molecular Sciences, 2023).

Assays:
[1] = test system: monocyte-derived dendritic cells (moDCs); test: Multiplex xMAP cytokine production, direct stimulation of moDCs; assay type: cell-based, human; conditions: 24 h
Experimental: Primary peripheral blood mononuclear cells (PBMCs) collected from healthy donors were purchased from American Type Culture Collection (ATCC PCS-800-011). Primary CD14^+ blood monocytes were isolated from PBMCs by adherence according to standard technique. Monocyte-derived mature dendritic cells (moDCs) were obtained from CD14^+ blood monocytes according to the previously reported protocol. Briefly, blood monocytes were incubated in a complete RPMI-1640 medium (Capricorn Scientific, Ebsdorfergrund, Germany), containing 10% fetal bovine serum (FBS, Capricorn Scientific, Ebsdorfergrund, Germany), 1× antibiotic-antimycotic solution (Invitrogen, Waltham, MA, USA), 800 U/mL rhGM-CSF (Sci-Store, Moscow, Russia) and 500 U/mL rhIL-4 (Sci-Store) for 3 days in CellXpert C170i CO2-incubator (Eppendorf, Hamburg, Germany). Fresh complete RPMI-1640 medium with rhGM-CSF and rhIL-4 was added to the culture on day 3. On day 5, fresh complete RPMI-1640 containing 100 U/mL rhTNF-α (Sigma-Aldrich, St. Louis, MO, USA) as well as 800 U/mL rhGM-CSF and 500 U/mL rhIL-4 was added and the culture was incubated for another 4 days until full maturation.
Monocytes and moDCs were seeded into the wells of 48- and 24-well plates in the complete RPMI-1640 medium supplemented with 10% human AB serum (HABS, Capricorn Scientific) without antibiotics 24 h prior to the experiment, and kept in a humidified CO2-incubator (5% CO2, 37 °C). After 24 h, the medium in the wells of the 48-well plate was replaced by fresh complete RPMI-1640 medium with 10% HABS, supplemented with 2 µM of Psd1 for the sample wells or fresh medium alone for the control wells. Medium in the wells of the 24-well plate was replaced by fresh complete RPMI-1640 medium with 10% human serum without antibiotics. Then, Millicell inserts with Caco-2 monolayers with TEER > 400 Ωcm^2 were placed into the wells of the 24-well plate, containing monocytes or moDCs. Wells with Millicell inserts with Caco-2 monolayers without immune cells were used as control wells. Medium in apical chambers of Millicell inserts was replaced by fresh complete RPMI-1640 with 10% human serum medium containing Psd1 at the final concentration of 2 µM or Candida albicans at the concentration of 5 × 10^4 cells/mL or yeast cells together with the pea defensin at the same concentration. Fresh complete RPMI-1640 medium only with 10% human serum and without antibiotics was used in control wells. Plates were kept in CO2-incubator (5% CO2, 37 °C) for another 24 h. Culture supernatants from the wells of the 48-well plate and basolateral chambers of the 24-well plate were collected and stored at −70 °C degrees less than one month prior to the analytes assessment.
The following 48 analytes were measured at a protein level by multiplex xMAP technology using the MILLIPLEX Human Cytokine/Chemokine/Growth Factor Panel A kit (HCYTA-60K-PX48, Merck, Darmstadt, Germany): sCD40L, EGF, Eotaxin-1/CCL11, FGF-2/FGF-basic, Flt-3 ligand, Fractalkine/CX3CL1, G-CSF, GM-CSF, GROα/CXCL1, IFNα2, IFNγ, IL-1α, IL-1β, IL-1RA, IL-2, IL-3, IL-4, IL-5, IL-6, IL-7, IL-8/CXCL8, IL-9, IL-10, IL-12(p40), IL-12(p70), IL-13, IL-15, IL-17A/CTLA8, IL-17E/IL-25, IL-17F, IL-18, IL-22, IL-27, IP-10/CXCL10, MCP-1/CCL2, MCP-3/CCL7, M-CSF, MDC/CCL22, MIG/CXCL9, MIP-1α/CCL3, MIP-1β/CCL4, PDGF-AA, PDGF-AB/BB, RANTES/CCL5, TGFα, TNFα, TNFβ, and VEGF-A. Multiplex-based assay read-out was performed using the MAGPIX system (Merck) with the xPONENT 4.2 software (Merck) in accordance with the manufacturer’s instruction with overnight incubation of the samples with primary antibodies. A final analysis was carried out with the MILLIPLEX Analyst v5.1 software (Merck). Measurements were performed twice for each sample. Release of the analytes in control and experimental samples was compared with an unpaired two-sample t-test using GraphPad Prism v.8.0.1 (GraphPad Software, Inc., San Diego, CA, USA). The p values ≤ 0.05 were considered significant.

[2] = test system: Candida albicans enzymes; conditions: cited from earlier work

For “Psd1: pea defensin from Pisum sativum (UNIPROT P81929), recombinant peptide overexpressed in Escherichia coli (KTCEHLADTYRGVCFTNASCDDHCKNKAHLISGTCHNWKCFCTQNC; UniProt P81929 1-46, looked up)”, the EGF level ([1]; moDCs+Psd1, 2 µM, supernatant) was 6.22 pg/mL, the Eotaxin level ([1]; moDCs+Psd1, 2 µM, supernatant) was <3.52↓ pg/ml and the FGF-2 level ([1]; moDCs+Psd1, 2 µM, supernatant) was 55.36 pg/mL. For the same substance, the FLT-3L level ([1]; moDCs+Psd1, 2 µM, supernatant) was 1.05 pg/mL, the Fractalkine level ([1]; moDCs+Psd1, 2 µM, supernatant) was <17.82↓ pg/ml and the G-CSF level ([1]; moDCs+Psd1, 2 µM, supernatant) was 49.49 pg/mL. For the same substance, the GM-CSF level ([1]; moDCs+Psd1, 2 µM, supernatant) was 11.89 pg/mL, the GROa level ([1]; moDCs+Psd1, 2 µM, supernatant) was <0.61↓ pg/ml and the IFNa2 level ([1]; moDCs+Psd1, 2 µM, supernatant) was 12.78 pg/mL. The IFNg level ([1]; moDCs+Psd1, 2 µM, supernatant) was 7.25 pg/mL, the IL-1RA level ([1]; moDCs+Psd1, 2 µM, supernatant) was 53.29 pg/mL and the IL-1a level ([1]; moDCs+Psd1, 2 µM, supernatant) was 12.23 pg/mL. For the same substance, the IL-1b level ([1]; moDCs+Psd1, 2 µM, supernatant) was <2.26↓ pg/ml, the IL-2 level ([1]; moDCs+Psd1, 2 µM, supernatant) was 1.82 pg/mL and the IL-3 level ([1]; moDCs+Psd1, 2 µM, supernatant) was 1.61 pg/mL. For the same substance, the IL-4 level ([1]; moDCs+Psd1, 2 µM, supernatant) was <1.14↓ pg/ml, the IL-5 level ([1]; moDCs+Psd1, 2 µM, supernatant) was 4.15 pg/mL and the IL-6 level ([1]; moDCs+Psd1, 2 µM, supernatant) was 14.4 pg/mL. The IL-7 level ([1]; moDCs+Psd1, 2 µM, supernatant) was <0.38↓ pg/ml, the IL-8 level ([1]; moDCs+Psd1, 2 µM, supernatant) was 345.9 pg/mL and the IL-9 level ([1]; moDCs+Psd1, 2 µM, supernatant) was 3.67 pg/mL. For the same substance, the IL-10 level ([1]; moDCs+Psd1, 2 µM, supernatant) was 33.74 pg/mL, the “IL-12 (p40) level” value ([1]; moDCs+Psd1, 2 µM, supernatant) was 98.57 pg/mL and the “IL-12 (p70) level” value ([1]; moDCs+Psd1, 2 µM, supernatant) was <1.68↓ pg/ml. It also gave an IL-13 level ([1]; moDCs+Psd1, 2 µM, supernatant) of 19.51 pg/mL, an IL-15 level ([1]; moDCs+Psd1, 2 µM, supernatant) of 12.91 pg/mL and an IL-17A level ([1]; moDCs+Psd1, 2 µM, supernatant) of 3.9 pg/mL. The IL-17E/IL-25 level ([1]; moDCs+Psd1, 2 µM, supernatant) was <18.85↓ pg/ml, the IL-17F level ([1]; moDCs+Psd1, 2 µM, supernatant) was <19.03↓ pg/ml and the IL-18 level ([1]; moDCs+Psd1, 2 µM, supernatant) was 2.59 pg/mL. For the same substance, the IL-22 level ([1]; moDCs+Psd1, 2 µM, supernatant) was 12.46 pg/mL, the IL-27 level ([1]; moDCs+Psd1, 2 µM, supernatant) was 135.68 pg/mL and the IP-10 level ([1]; moDCs+Psd1, 2 µM, supernatant) was 8892 pg/mL. The M-GSF level ([1]; moDCs+Psd1, 2 µM, supernatant) was 218.78 pg/mL, the MCP-1 level ([1]; moDCs+Psd1, 2 µM, supernatant) was 1760 pg/mL and the MCP-3 level ([1]; moDCs+Psd1, 2 µM, supernatant) was 49.77 pg/mL. For the same substance, the MDC level ([1]; moDCs+Psd1, 2 µM, supernatant) was 3016 pg/mL, the MIG level ([1]; moDCs+Psd1, 2 µM, supernatant) was 30050 pg/mL and the MIP-1a level ([1]; moDCs+Psd1, 2 µM, supernatant) was 185.33 pg/mL. It also gave an MIP-1b level ([1]; moDCs+Psd1, 2 µM, supernatant) of 554.97 pg/mL, a PDGF-AA level ([1]; moDCs+Psd1, 2 µM, supernatant) of 89.5 pg/mL and a PDGF-AB/BB level ([1]; moDCs+Psd1, 2 µM, supernatant) of 139.81 pg/mL. For the same substance, the RANTES level ([1]; moDCs+Psd1, 2 µM, supernatant) was 65.35 pg/mL, the TGF-a level ([1]; moDCs+Psd1, 2 µM, supernatant) was 113.74 pg/mL and the TNFa level ([1]; moDCs+Psd1, 2 µM, supernatant) was 55.68 pg/mL. The TNFb level ([1]; moDCs+Psd1, 2 µM, supernatant) was 2.29 pg/mL, the VEGFa level ([1]; moDCs+Psd1, 2 µM, supernatant) was <1.40↓ pg/ml and the sCD40L level ([1]; moDCs+Psd1, 2 µM, supernatant) was 133.96 pg/mL. For the same substance, the “increase in IL-12, IL-15, IL-27 and MCP-1” value ([1]; moDCs, 2 μM) was “statistically significant”, the “production of TNFα, IL-6, IL-8, IP-10, MCP-3, and G-CSF” value ([1]; moDCs, 2 μM) was “increased” and the “stability to proteolysis by Candida albicans enzymes” value [2] was “stable to proteolysis by Candida albicans enzymes”.
